# Test results as given in patent US10865384B2, “2,4,5-tri-substituted azole-based casein kinase 1 inhibitors as inducers for cardiomyogenesis” (AGENCY FOR SCIENCE, TECHNOLOGY AND RESEARCH, priority 2014, dated 2020).
# Tested on: hESC3 Nkx2.5eGFP/w cells
# Assay: Differentiation in 96-U bottom ultra-low attachment well plates, GFP area imaging
# Type: cell-based, human
# Details: 5 μM; for Average GFP %: after CHIR99021, read on day 14, GFP area over embryoid body size; for Average GFP μm^2 / Average Area μm^2: day 14; for Average Area μm^2: embryoid body size; for Cardiogenic properties: at specific time course (induction day 2 or 3)
smiles,measurement,setting,value
"O=C(Nc1cccc2cccnc12)c1ccc(N2C(=O)[C@@H]3[C@H](C2=O)[C@@H]2C=C[C@H]3C2)cc1 [IWR-1, reference compound]",Average GFP %,Induction Day 2,41.3%
same,Average GFP μm^2,Induction Day 2,308.9 μm^2
same,Average Area μm^2,Induction Day 2,763.0 μm^2
same,Average GFP %,Induction Day 3,51.1%
same,Average GFP μm^2,Induction Day 3,426.3 μm^2
same,Average Area μm^2,Induction Day 3,831.4 μm^2
"Fc1ccc(-c2nc(-c3ccccc3)[nH]c2-c2ccncc2)cc1 [ZQX-14, 4-[4(5)-(4-fluorophenyl)-2-phenyl-1H-imidazol-5(4)-yl]pyridine]",Average GFP %,Induction Day 2,42.4%
same,Average GFP μm^2,Induction Day 2,335.6 μm^2
same,Average Area μm^2,Induction Day 2,810.7 μm^2
same,Average GFP %,Induction Day 3,5.9%
same,Average GFP μm^2,Induction Day 3,91.6 μm^2
same,Average Area μm^2,Induction Day 3,1474.4 μm^2
"Fc1ccc(-c2nc(-c3c(Cl)cccc3Cl)[nH]c2-c2ccncc2)cc1 [ZQX-15, 4-[2-(2,6-dichlorophenyl)-4(5)-(4-fluorophenyl)-1H-imidazol-5(4)-yl]pyridine]",Average GFP %,Induction Day 2,0.0%
same,Average GFP μm^2,Induction Day 2,0.0 μm^2
same,Average Area μm^2,Induction Day 2,129.4 μm^2
same,Average GFP %,Induction Day 3,0.0%
same,Average GFP μm^2,Induction Day 3,0.0 μm^2
same,Average Area μm^2,Induction Day 3,384.0 μm^2
"COc1ccccc1-c1nc(-c2ccc(F)cc2)c(-c2ccncc2)[nH]1 [ZQX-16, 4-[2-(2-methoxyphenyl)-4(5)-(4-fluorophenyl)-1H-imidazol-5(4)-yl]pyridine]",Average GFP %,Induction Day 2,32.8%
same,Average GFP μm^2,Induction Day 2,184.7 μm^2
same,Average Area μm^2,Induction Day 2,576.1 μm^2
same,Average GFP %,Induction Day 3,14.5%
same,Average GFP μm^2,Induction Day 3,125.6 μm^2
same,Average Area μm^2,Induction Day 3,950.3 μm^2
"Fc1ccc(-c2nc(-c3ccccc3Cl)[nH]c2-c2ccncc2)cc1 [ZQX-17, 4-[2-(2-chlorophenyl)-4(5)-(4-fluorophenyl)-1H-imidazol-5(4)-yl]pyridine]",Average GFP %,Induction Day 2,30.4%
same,Average GFP μm^2,Induction Day 2,183.0 μm^2
same,Average Area μm^2,Induction Day 2,586.7 μm^2
same,Average GFP %,Induction Day 3,24.6%
same,Average GFP μm^2,Induction Day 3,232.7 μm^2
same,Average Area μm^2,Induction Day 3,971.6 μm^2
"COc1cccc(OC)c1-c1nc(-c2ccc(F)cc2)c(-c2ccncc2)[nH]1 [ZQX-18, 4-[2-(2,6-dimethoxyphenyl)-4(5)-(4-fluorophenyl)-1H-imidazol-5(4)-yl]pyridine]",Average GFP %,Induction Day 2,27.5%
same,Average GFP μm^2,Induction Day 2,207.3 μm^2
same,Average Area μm^2,Induction Day 2,579.4 μm^2
same,Average GFP %,Induction Day 3,15.4%
same,Average GFP μm^2,Induction Day 3,143.4 μm^2
same,Average Area μm^2,Induction Day 3,1065.1 μm^2
"Fc1ccc(-c2nc(-c3c(F)cccc3Cl)[nH]c2-c2ccncc2)cc1 [ZQX-19, 4-[2-(2-chloro-6-fluorophenyl)-4(5)-(4-fluorophenyl)-1H-imidazol-5(4)-yl]pyridine]",Cardiogenic properties,,higher cardiogenic properties as SB203580 and IWP-2
same,Average GFP %,Induction Day 2,2.4%
same,Average GFP μm^2,Induction Day 2,46.4 μm^2
same,Average Area μm^2,Induction Day 2,903.3 μm^2
same,Average GFP %,Induction Day 3,32.7%
same,Average GFP μm^2,Induction Day 3,511.6 μm^2
same,Average Area μm^2,Induction Day 3,1616.9 μm^2
"COc1cccc(F)c1-c1nc(-c2ccc(F)cc2)c(-c2ccncc2)[nH]1 [ZQX-20, 4-[2-(2-fluoro-6-methoxyphenyl)-4(5)-(4-fluorophenyl)-1H-imidazol-5(4)-yl]pyridine]",Cardiogenic properties,,higher cardiogenic properties as SB203580 and IWP-2
same,Average GFP %,Induction Day 2,26.0%
same,Average GFP μm^2,Induction Day 2,286.8 μm^2
same,Average Area μm^2,Induction Day 2,1145.3 μm^2
same,Average GFP %,Induction Day 3,37.3%
same,Average GFP μm^2,Induction Day 3,331.1 μm^2
same,Average Area μm^2,Induction Day 3,996.2 μm^2
"Fc1ccc(-c2nc(-c3c(F)cccc3Br)[nH]c2-c2ccncc2)cc1 [ZQX-21, 4-[2-(2-bromo-6-fluorophenyl)-4(5)-(4-fluorophenyl)-1H-imidazol-5(4)-yl]pyridine]",Average GFP %,Induction Day 2,0.0%
same,Average GFP μm^2,Induction Day 2,0.0 μm^2
same,Average Area μm^2,Induction Day 2,1383.8 μm^2
same,Average GFP %,Induction Day 3,3.4%
same,Average GFP μm^2,Induction Day 3,16.9 μm^2
same,Average Area μm^2,Induction Day 3,974.3 μm^2
"Fc1ccc(-c2nc(-c3ccccc3Br)[nH]c2-c2ccncc2)cc1 [ZQX-22, 4-[2-(2-bromophenyl)-4(5)-(4-fluorophenyl)-1H-imidazol-5(4)-yl]pyridine]",Average GFP %,Induction Day 2,26.2%
same,Average GFP μm^2,Induction Day 2,166.5 μm^2
same,Average Area μm^2,Induction Day 2,623.0 μm^2
same,Average GFP %,Induction Day 3,24.4%
same,Average GFP μm^2,Induction Day 3,284.4 μm^2
same,Average Area μm^2,Induction Day 3,1165.0 μm^2
"O=[N+]([O-])c1cccc(Cl)c1-c1nc(-c2ccc(F)cc2)c(-c2ccncc2)[nH]1 [ZQX-25, 4-[2-(2-chloro-6-nitrophenyl)-4(5)-(4-fluorophenyl)-1H-imidazol-5(4)-yl]pyridine]",Average GFP %,Induction Day 2,0.0%
same,Average GFP μm^2,Induction Day 2,0.0 μm^2
same,Average Area μm^2,Induction Day 2,544.3 μm^2
same,Average GFP %,Induction Day 3,15.6%
same,Average GFP μm^2,Induction Day 3,163.6 μm^2
same,Average Area μm^2,Induction Day 3,1105.4 μm^2
"COc1cc(O)c(-c2nc(-c3ccc(F)cc3)c(-c3ccncc3)[nH]2)c(OC)c1 [ZQX-26, 2-[4(5)-(4-fluorophenyl)-5(4)-(pyridin-4-yl)-1H-imidazol-2-yl]-3,5-dimethoxyphenol]",Average GFP %,Induction Day 2,30.9%
same,Average GFP μm^2,Induction Day 2,233.9 μm^2
same,Average Area μm^2,Induction Day 2,757.8 μm^2
same,Average GFP %,Induction Day 3,8.3%
same,Average GFP μm^2,Induction Day 3,88.2 μm^2
same,Average Area μm^2,Induction Day 3,1152.7 μm^2
"O=[N+]([O-])c1ccccc1-c1nc(-c2ccc(F)cc2)c(-c2ccncc2)[nH]1 [ZQX-27, 4-[4(5)-(4-fluorophenyl)-2-(2-nitrophenyl)-1H-imidazol-5(4)-yl]pyridine]",Average GFP %,Induction Day 2,15.1%
same,Average GFP μm^2,Induction Day 2,258.6 μm^2
same,Average Area μm^2,Induction Day 2,1469.4 μm^2
same,Average GFP %,Induction Day 3,3.4%
same,Average GFP μm^2,Induction Day 3,57.9 μm^2
same,Average Area μm^2,Induction Day 3,1758.3 μm^2
"Cc1cccc(C)c1-c1nc(-c2ccc(F)cc2)c(-c2ccncc2)[nH]1 [ZQX-28, 4-[2-(2,6-dimethylphenyl)-4(5)-(4-fluorophenyl)-1H-imidazol-5(4)-yl]pyridine]",Average GFP %,Induction Day 2,0.0%
same,Average GFP μm^2,Induction Day 2,0.0 μm^2
same,Average Area μm^2,Induction Day 2,302.4 μm^2
same,Average GFP %,Induction Day 3,2.1%
same,Average GFP μm^2,Induction Day 3,6.1 μm^2
same,Average Area μm^2,Induction Day 3,271.7 μm^2
"Cc1ccccc1-c1nc(-c2ccc(F)cc2)c(-c2ccncc2)[nH]1 [ZQX-29, 4-[4(5)-(4-fluorophenyl)-2-(2-methylphenyl)-1H-imidazol-5(4)-yl]pyridine]",Average GFP %,Induction Day 2,28.6%
same,Average GFP μm^2,Induction Day 2,277.1 μm^2
same,Average Area μm^2,Induction Day 2,876.4 μm^2
same,Average GFP %,Induction Day 3,2.7%
same,Average GFP μm^2,Induction Day 3,39.9 μm^2
same,Average Area μm^2,Induction Day 3,1296.6 μm^2
"Fc1ccc(-c2nc(-c3c(F)cccc3I)[nH]c2-c2ccncc2)cc1 [ZQX-30, 4-[2-(2-fluoro-6-iodophenyl)-4(5)-(4-fluorophenyl)-1H-imidazol-5(4)-yl]pyridine]",Average GFP %,Induction Day 2,4.6%
same,Average GFP μm^2,Induction Day 2,60.9 μm^2
same,Average Area μm^2,Induction Day 2,1361.8 μm^2
same,Average GFP %,Induction Day 3,12.6%
same,Average GFP μm^2,Induction Day 3,128.3 μm^2
same,Average Area μm^2,Induction Day 3,1142.4 μm^2
"Nc1ccccc1-c1nc(-c2ccc(F)cc2)c(-c2ccncc2)[nH]1 [ZQX-31, 4-[2-(2-aminophenyl)-4(5)-(4-fluorophenyl)-1H-imidazol-5(4)-yl]pyridine]",Average GFP %,Induction Day 2,28.9%
same,Average GFP μm^2,Induction Day 2,258.3 μm^2
same,Average Area μm^2,Induction Day 2,891.2 μm^2
same,Average GFP %,Induction Day 3,5.1%
same,Average GFP μm^2,Induction Day 3,96.0 μm^2
same,Average Area μm^2,Induction Day 3,1662.3 μm^2
